{"source": "patent EP0104572A1", "about": "“Benzyl ethers of phenol Mannich bases, process for their production, their use and pharmaceutical preparations based on these compounds, intermediates and process for their production” (priority 1982, dated 1984)", "key": {"[1]": {"test": "Change of relative liver weight and liver findings in the 7-day oral rat study", "format": "in vivo, männlichen Wistar-Ratten", "conditions": "rat, in vivo", "description": "Die erfindungsgemäßen Verbindungen haben wertvolle therapeutische Eigenschaften. So erniedrigen sie vor allem die Konzentration von LDL und VLDL, die HDL-Fraktion aber kaum, in vielen Fällen wird diese Fraktion sogar vermehrt. Diese Verbindungen stellen daher einen wesentlichen Fortschritt gegenüber der Vergleichsverbindung Clofibrat dar, wie aus .den nachfolgend beschriebenen Daten ersichtlich ist. Sie können daher zur Prophylaxe und Regression von arteriosklerotischen Veränderungen herangezogen werden, indem sie einen kausalen Risikofaktor ausschalten. Hierzu zählen nicht nur die primären Hyperlidämien, sondern auch gewisse sekundäre Hyperlipidämien wie sie z.B. beim Diabetes vorkommen. […] Die mit einer hypolipidämischen Wirkung verbundene unerwünschte Beeinflussung der Leber zeigt sich auch in sehr starkem Maße bei der in J.Med.Chem. 18 (1975) S. 833-836 beschriebenen Vergleichsverbindung 1-(4-Methylbenzyl)-imidazol. […] Die erfindungsgemäßen Verbindungen zeigen dieses unerwünschte Verhalten nicht.\n(§1) Die Wirkung der angeführten Verbindungen auf die Serum- Lipoproteine wurde an männlichen Wistar-Ratten untersucht, die 7 Tage per Schlundsonde mit den angeführten in Polyäthylenglykol 400 suspendierten Verbindungen behandelt wurden. Außerdem wurde eine Kontrollgruppe, die nur das Lösungsmittel Polyäthylenglykol 400 erhielt, mitgeführt, sowie bei den meisten Versuchen eine Ratten-Gruppe mit dem Standardhypolipidämikum Clofibrat. Pro Gruppe wurden in der Regel 10 Tiere eingesetzt, denen am Ende der Behandlung das Blut nach leichter Äthernarkose aus dem Orbitalplexus entnommen wurde. Aus dem gewonnenen Ratten-Serum wurden die Serum- Lipoproteine in der präparativen Ultrazentrifuge in folgende Dichteklassen getrennt: VLDL < 1,006; LDL 1,006 bis 1,04; HDL 1,04 bis 1,21"}, "Serum-Lipoproteine": {"test_system": "Serum-Lipoproteine", "test": "Change of serum and lipoprotein-fraction cholesterol in rats after 7 days of oral treatment (ultracentrifuge fractionation, CHOD-PAP cholesterol)", "format": "in vivo, männlichen Wistar-Ratten", "conditions": "for change in vivo at 100 mg/kg: Rattus norvegicus, 168 h, 100 mg/kg / Tag, oral (gavage), 7 days, male Wistar rats", "description": "as §1\nDa nämlich im Gegensatz zum Menschen die Serumlipoproteine der Ratte etwa 4/5 HDL-Cholesterin und nur 1/5 LDL-Cholesterin enthalten und nur sehr geringe Mengen von VLDL (beim Menschen umgekehrt etwa 2/3 LDL und VLDL und nur 1/3 bis 1/4 HDL), macht die Beurteilung einer hypolipidämischen Wir- .kung an der Ratte unbedingt eine Fraktionierung des Ratten-serums in Lipoproteinklassen erforderlich. Eine bloße Erniedrigung des Serum-Total-cholesteringehaltes an der Ratte würde nämlich nur die unerwünschte Erniedrigung der bei der Ratte vorwiegenden antiatherogenen HDL-Klasse anzeigen. Eine erwünschte Erniedrigung von LDL bei gleichzeitiger erwünschter Vermehrung von HDL hätte aber keine (wesentliche) Auswirkung auf den Totalcholesteringehalt des Ratten-Serums.\nAus den in der Ultrazentrifuge isolierten LipoproteinFraktionen wurde das darin enthaltene Cholesterin vollenzymatisch nach der CHOD-PAP-Methode mittels der Testkombination von Boehringer-Mannheim bestimmt und die Werte in µg/ml Serum umgerechnet. In der angeführten Tabelle ist die Veränderung des Lipoprotein-Cholesterins in der behandelten Gruppe gegenüber einer unter gleichen Bedingungen mitgeführten Kontrollgruppe angegeben.\nVeränderung in % der Lipoproteine im Ratten-Serum nach siebentägiger oraler Applikation der Verbindungen"}}, "note": "Like-named read-outs stand apart in the source and are kept apart here.", "data": [{"smiles": "CCOC(=O)C(C)(C)Oc1ccc(Cl)cc1", "note": "[Clofibrat, reference compound]", "values": [{"measurement": "relatives Lebergewicht", "setting": "[1]", "value": "starken Erhöhung des relativen Lebergewichts"}, {"measurement": "change in vivo at 100 mg/kg", "setting": "Serum-Lipoproteine; read-out: Cholesterolveränderung in %, bezogen auf die Kontrollgruppe im Serum", "value": -29, "unit": "%"}, {"measurement": "change in vivo at 100 mg/kg", "setting": "Serum-Lipoproteine; read-out: Cholesterolveränderung in %, bezogen auf die Kontrollgruppe in den Serum-Lipoprotein-Fraktionen HDL", "value": -34, "unit": "%"}, {"measurement": "change in vivo at 100 mg/kg", "setting": "Serum-Lipoproteine; read-out: Cholesterolveränderung in %, bezogen auf die Kontrollgruppe in den Serum-Lipoprotein-Fraktionen LDL", "value": -18, "unit": "%"}, {"measurement": "change in vivo at 100 mg/kg", "setting": "Serum-Lipoproteine; read-out: Cholesterolveränderung in %, bezogen auf die Kontrollgruppe in den Serum-Lipoprotein-Fraktionen VLDL", "value": -48, "unit": "%"}, {"measurement": "Wirkung auf die Lipoproteinfraktionen (VLDL, LDL, HDL)", "setting": "Serum-Lipoproteine; statement in words summarising the table, rat serum, 7 days oral", "value": "stärkere Verminderung der HDL- als der LDL-Fraktion"}]}]}
